Here are results for one molecule from paper PMC10353061 (ACS Pharmacology & Translational Science, 2023).

The assay addresses T1, β-catenin Armadillo repeats domain (Homo sapiens, UniProt P35222).
T1 construct: GST (N, cleaved yes); made in house; host or cells: Escherichia coli BL21(DE3)
T1 sequence (P35222 133-664): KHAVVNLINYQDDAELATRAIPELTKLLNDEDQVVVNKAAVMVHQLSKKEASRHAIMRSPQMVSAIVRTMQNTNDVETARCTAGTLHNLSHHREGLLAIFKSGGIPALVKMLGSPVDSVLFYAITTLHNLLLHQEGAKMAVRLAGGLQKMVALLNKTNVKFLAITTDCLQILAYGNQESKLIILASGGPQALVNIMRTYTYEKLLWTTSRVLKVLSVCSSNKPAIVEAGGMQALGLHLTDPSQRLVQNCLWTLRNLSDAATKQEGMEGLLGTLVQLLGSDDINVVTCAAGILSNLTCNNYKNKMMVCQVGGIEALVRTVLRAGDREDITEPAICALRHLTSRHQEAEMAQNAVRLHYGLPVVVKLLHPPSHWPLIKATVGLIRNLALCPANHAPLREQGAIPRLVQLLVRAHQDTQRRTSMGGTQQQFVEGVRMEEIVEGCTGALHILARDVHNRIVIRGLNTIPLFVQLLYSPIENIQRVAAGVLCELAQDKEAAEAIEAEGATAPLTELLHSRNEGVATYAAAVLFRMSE
In words: Surface plasmon resonance binding of 9 to immobilized β-catenin Armadillo repeats domain. Particulars: SPR, 25 °C, analyte 1.95-62.5 nM, 1:1 model; read-out: ka. The protocol: To collect detailed kinetic data of the binding measured as the rate constants of the association (ka) and dissociation (kd) of the complex, a concentration series of the analyte ranging from 1.95 up to 62.5 nM was injected over the covalently immobilized Armadillo repeats domain onto the sensor chip surface and the interaction between the analyte and the ligand was detected as a measure of the change in mass concentration upon the surface, expressed in resonance units (RUs) and compared to the baseline.
Full kinetic analysis of the binding interaction between 9 when binding to the Armadillo domain is shown in Figure 4, with the calculated binding parameters listed in the bottom table. As evidenced by the sensorgram obtained at different analyte concentrations, the dissociation rate constant of 9 is very slow, thereby resulting in a low nanomolar equilibrium affinity constant (KD) of the binding calculated as the ratio of kd/ka (Figure 4).
Figure 4 SPR kinetic analysis. […]
The analyte 9 was dialyzed in the running buffer (1% final DMSO concentration) and injected at different concentrations for 120 s onto the sensor chip at a constant flow rate of 50 μL/min. […] The equilibrium dissociation constant (KD) was determined by the ratio Koff/Kon. […]
For orientation: SPR reads the build-up and loss of mass on a sensor chip optically.

As for `O=S(=O)(Nc1ccc(-c2ccccn2)cc1)c1ccc(Br)cc1` [Compound 9, 4-Bromo-N-(4-(pyridin-2-yl)phenyl)benzenesulfonamide], the kon is 293000 M⁻¹ s⁻¹.
